# Data published in patent US20250281457A1, “TREATMENT OR PREVENTION OF DENGUE VIRAL INFECTION” (Janssen Pharmaceuticals, Inc., priority 2022, published 2025).
# Read-outs that look alike come from different tables or passages of the source.
# Assay: Effect of food on plasma pharmacokinetics after single oral dose of SF2a/b (Example 2)
# Type: in vivo, human
# Details: for AUC(0-t) / AUC(0-inf) / Cmax / half-life / Tmax: both sexes, human, plasma, oral; for Tmax: read-out: tmax, Median
# Description: The effect of food on the pharmacokinetics (PK) of Compound (a) was assessed in healthy participants after a single oral dose of SF2a/b, described in Example 1, administered at different dose levels in a randomized single dose, 2-period crossover study. The effect of food on the PK of Compound (a) was determined at 3 different dose levels (50 mg, 200 mg, and 800 mg) for a standardized breakfast; at one dose level (800 mg) for a high-fat, high-calorie breakfast; at two dose levels (200 mg and 800 mg) for a low-fat, low-calorie breakfast, as well as for a low-fat, high-calorie breakfast. 124 healthy adult participants (male and female, 18 to 55 years of age) were enrolled in this study. The volunteers were divided in six panels, which were organized as follows: • Panel […]: • Treatment D: A single 800-mg dose (4×200-mg tablets) of Compound (a) SF2b in fasted conditions. • Treatment E: A single 800-mg dose (4×200-mg tablets) of Compound (a) SF2b in fed conditions (standardized breakfast). • Treatments D and E (treatment sequence group 1 [n=8]: DE; treatment sequence group 2 [n=8]: ED). Panel 4, n=14: • Treatment F: A single 200-mg dose (1×200-mg tablet) of Compound (a) SF2b in fasted conditions. • Treatment G: A single 200-mg dose (1×200-mg tablet) of Compound (a) SF2b, in fed conditions (standardized breakfast). • Treatments F and G (treatment sequence group 1 [n=7]: FG; treatment sequence group 2 [n=7]: GF). Panel […]: • Treatment H: A single 50-mg dose (1×50-mg tablet) of Compound (a) SF2a in fasted conditions. • Treatment I: A single 50-mg dose (1×50-mg tablet) of Compound (a) SF2a in fed conditions (standardized breakfast). • Treatments H and I (treatment sequence group 1 [n=7]: HI; treatment sequence group 2 [n=7]: IH). Panel 6 (n=16): • Treatment J: single 800-mg dose (4×200-mg tablets) of Compound (a) administered as SF2b in fasted conditions. • Treatment K: single 800-mg dose (4×200-mg tablets) of Compound (a) administered as SF2b in fed conditions (high-fat, high-calorie breakfast). • Treatments J and K (treatment sequence group 1 [n=8]: JK; treatment sequence group 2 [n=8]: KJ). Panel 7 (n=32): • Treatment L: single 800-mg dose (4×200-mg tablets) of Compound (a) administered as SF2b in fed conditions (low-fat, low-calorie breakfast). • Treatment M: single 800-mg dose (4×200-mg tablets) of Compound (a) administered as SF2b in fed conditions (low-fat, high-calorie breakfast). • Treatment L (n=16) or Treatment M (n=16). Panel 8 (n=32): • Treatment N: single 200-mg dose (1×200-mg tablet) of Compound (a) administered as SF2b in fed conditions (low-fat, low-calorie breakfast). • Treatment O: single 200-mg dose (1×200-mg tablet) of Compound (a) administered as SF2b in fed conditions (low-fat, high-calorie breakfast). • Treatment N (n=16) or Treatment O (n=16). Tablets were administered orally, together with approximately 240 mL of non-carbonated water, in fasted or fed conditions. […] On day 1 of all treatments in each panel, the participants had fasted overnight for at least 10 hours before study drug intake. Intake of water was not allowed from 2 hours before and until 2 hours after study drug intake, except for the water used for study drug intake and breakfast. In case of intake in fed conditions, study drug was administered within 10 minutes after completing a standardized breakfast (Treatments E, G, and I), or a high-fat, high-calorie breakfast (Treatment K), a low-fat, low-calorie breakfast (Treatments L and N), or a low-fat, high-calorie breakfast (Treatments M and O). For treatments E, G, and I a standardized breakfast was served, consisting of (or its equivalent) 4 slices of bread, 2 slices of ham or cheese, butter, jelly, and 1 or 2 cups (up to 355 mL) of decaffeinated coffee or tea with milk and/or sugar, if desired (containing approximately: fat: 21 g, carbohydrates: 67 g, proteins: 19 g; total calories: 533 kcal). For treatment K in a high-fat, high-calorie breakfast was served. […]
# [1] = 50 mg SF2a, standardized breakfast vs fasted
# [2] = 200 mg SF2b, low-fat, high-calorie vs standardized breakfast
# [3] = 200 mg SF2b, low-fat, low-calorie vs standardized breakfast
# [4] = 200 mg SF2b, standardized breakfast vs fasted
# [5] = 800 mg SF2b, high-fat, high-calorie breakfast vs fasted
# [6] = 800 mg SF2b, low-fat, high-calorie vs standardized breakfast
# [7] = 800 mg SF2b, low-fat, low-calorie vs standardized breakfast
# [8] = 800 mg SF2b, standardized breakfast vs fasted
smiles,measurement,setting,value
COc1cc(NC(C(=O)c2c[nH]c3ccc(OC(F)(F)F)cc23)c2ccc(Cl)cc2OC)cc(S(C)(=O)=O)c1 (centres unmarked) [Compound (a)],"AUClast, Geometric Mean Ratio Treatment I vs Treatment H",[1],120.38%
same,"AUC∞, Geometric Mean Ratio Treatment I vs Treatment H",[1],121.24%
same,"Cmax, Geometric Mean Ratio Treatment I vs Treatment H",[1],132.83%
same,"AUClast, Geometric Mean Ratio Treatment O vs Treatment G",[2],66.47%
same,"AUC∞, Geometric Mean Ratio Treatment O vs Treatment G",[2],67.23%
same,"Cmax, Geometric Mean Ratio Treatment O vs Treatment G",[2],72.81%
same,"AUClast, Geometric Mean Ratio Treatment N vs Treatment G",[3],73.28%
same,"AUC∞, Geometric Mean Ratio Treatment N vs Treatment G",[3],73.61%
same,"Cmax, Geometric Mean Ratio Treatment N vs Treatment G",[3],72.54%
same,"AUClast, Geometric Mean Ratio Treatment G vs Treatment F",[4],168.45%
same,"AUC∞, Geometric Mean Ratio Treatment G vs Treatment F",[4],172.00%
same,"Cmax, Geometric Mean Ratio Treatment G vs Treatment F",[4],176.07%
same,"AUClast, Geometric Mean Ratio Treatment K vs Treatment J",[5],391.52%
same,"AUC∞, Geometric Mean Ratio Treatment K vs Treatment J",[5],384.08%
same,"Cmax, Geometric Mean Ratio Treatment K vs Treatment J",[5],409.01%
same,"AUClast, Geometric Mean Ratio Treatment M vs Treatment E",[6],65.27%
same,"AUC∞, Geometric Mean Ratio Treatment M vs Treatment E",[6],69.35%
same,"Cmax, Geometric Mean Ratio Treatment M vs Treatment E",[6],60.73%
same,"AUClast, Geometric Mean Ratio Treatment L vs Treatment E",[7],60.37%
same,"AUC∞, Geometric Mean Ratio Treatment L vs Treatment E",[7],64.71%
same,"Cmax, Geometric Mean Ratio Treatment L vs Treatment E",[7],60.56%
same,"AUClast, Geometric Mean Ratio Treatment E vs Treatment D",[8],241.23%
same,"AUC∞, Geometric Mean Ratio Treatment E vs Treatment D",[8],238.11%
same,"Cmax, Geometric Mean Ratio Treatment E vs Treatment D",[8],277.77%
same,"relative bioavailability for AUClast, standardized breakfast compared to fasted","SF2a/b, 50 mg dose",124%
same,"relative bioavailability for Cmax, standardized breakfast compared to fasted","SF2a/b, 50 mg dose",133%
same,"relative bioavailability for AUClast, standardized breakfast compared to fasted","SF2a/b, 800 mg dose",243%
same,"relative bioavailability for Cmax, standardized breakfast compared to fasted","SF2a/b, 800 mg dose",278%
same,"exposure, high-fat, high-calorie breakfast compared to fasted conditions","SF2a/b, single dose 800 mg",approximately 4 times higher
same,"tlast, Median","Treatment D: single 800 mg (SF2b), fasted",840.00 h
same,"tlast, Median","Treatment E: single 800 mg (SF2b), fed, standardized breakfast",840.00 h
same,"tlast, Median","Treatment F: single 200 mg (SF2b), fasted",840.00 h
same,"tlast, Median","Treatment G: single 200 mg (SF2b), fed, standardized breakfast",840.00 h
same,"tlast, Median","Treatment H: single 50 mg (SF2a), fasted",840.00 h
same,"tlast, Median","Treatment I: single 50 mg (SF2a), fed, standardized breakfast",840.00 h
same,AUC(0-t),"50 mg, 50 mg SF2a, fasted, linear mixed effects model (Table 5C), read-out: AUClast, Geometric Mean Treatment H",17900 ng·h/mL
same,AUC(0-inf),"50 mg, 50 mg SF2a, fasted, linear mixed effects model (Table 5C), read-out: AUC∞, Geometric Mean Treatment H",18700 ng·h/mL
same,Cmax,"50 mg, 50 mg SF2a, fasted, linear mixed effects model (Table 5C), read-out: Cmax, Geometric Mean Treatment H",193 ng/mL
same,AUC(0-t),"50 mg, 50 mg SF2a, standardized breakfast, linear mixed effects model (Table 5C), read-out: AUClast, Geometric Mean Treatment I",21600 ng·h/mL
same,AUC(0-inf),"50 mg, 50 mg SF2a, standardized breakfast, linear mixed effects model (Table 5C), read-out: AUC∞, Geometric Mean Treatment I",22700 ng·h/mL
same,Cmax,"50 mg, 50 mg SF2a, standardized breakfast, linear mixed effects model (Table 5C), read-out: Cmax, Geometric Mean Treatment I",257 ng/mL
same,AUC(0-t),"50 mg, Treatment H: single 50 mg (SF2a), fasted, read-out: AUClast, Geo. Mean",18000 ng·h/mL
same,AUC(0-t),"50 mg, Treatment H: single 50 mg (SF2a), fasted, read-out: AUClast, Mean",19900 ng·h/mL
same,AUC(0-t),"50 mg, Treatment H: single 50 mg (SF2a), fasted, read-out: AUClast, Median",18500 ng·h/mL
same,AUC(0-inf),"50 mg, Treatment H: single 50 mg (SF2a), fasted, read-out: AUC∞, Geo. Mean",18800 ng·h/mL
same,AUC(0-inf),"50 mg, Treatment H: single 50 mg (SF2a), fasted, read-out: AUC∞, Mean",21000 ng·h/mL
same,AUC(0-inf),"50 mg, Treatment H: single 50 mg (SF2a), fasted, read-out: AUC∞, Median",18800 ng·h/mL
same,Cmax,"50 mg, Treatment H: single 50 mg (SF2a), fasted, read-out: Cmax, Geo. Mean",195 ng/mL
same,Cmax,"50 mg, Treatment H: single 50 mg (SF2a), fasted, read-out: Cmax, Mean",214 ng/mL
same,Cmax,"50 mg, Treatment H: single 50 mg (SF2a), fasted, read-out: Cmax, Median",208 ng/mL
same,half-life,"50 mg, Treatment H: single 50 mg (SF2a), fasted, read-out: t1/2, term, Geo. Mean (converted)",167 h
same,half-life,"50 mg, Treatment H: single 50 mg (SF2a), fasted, read-out: t1/2, term, Mean (converted)",176 h
same,half-life,"50 mg, Treatment H: single 50 mg (SF2a), fasted, read-out: t1/2, term, Median (converted)",162 h
same,Tmax,"50 mg, Treatment H: single 50 mg (SF2a), fasted",7 h
same,AUC(0-t),"50 mg, Treatment I: single 50 mg (SF2a), fed, standardized breakfast, read-out: AUClast, Geo. Mean",21100 ng·h/mL
same,AUC(0-t),"50 mg, Treatment I: single 50 mg (SF2a), fed, standardized breakfast, read-out: AUClast, Mean",22900 ng·h/mL
same,AUC(0-t),"50 mg, Treatment I: single 50 mg (SF2a), fed, standardized breakfast, read-out: AUClast, Median",20400 ng·h/mL
same,AUC(0-inf),"50 mg, Treatment I: single 50 mg (SF2a), fed, standardized breakfast, read-out: AUC∞, Geo. Mean",22100 ng·h/mL
same,AUC(0-inf),"50 mg, Treatment I: single 50 mg (SF2a), fed, standardized breakfast, read-out: AUC∞, Mean",24600 ng·h/mL
same,AUC(0-inf),"50 mg, Treatment I: single 50 mg (SF2a), fed, standardized breakfast, read-out: AUC∞, Median",20800 ng·h/mL
same,Cmax,"50 mg, Treatment I: single 50 mg (SF2a), fed, standardized breakfast, read-out: Cmax, Geo. Mean",257 ng/mL
same,Cmax,"50 mg, Treatment I: single 50 mg (SF2a), fed, standardized breakfast, read-out: Cmax, Mean",288 ng/mL
same,Cmax,"50 mg, Treatment I: single 50 mg (SF2a), fed, standardized breakfast, read-out: Cmax, Median",267 ng/mL
same,half-life,"50 mg, Treatment I: single 50 mg (SF2a), fed, standardized breakfast, read-out: t1/2, term, Geo. Mean (converted)",174 h
same,half-life,"50 mg, Treatment I: single 50 mg (SF2a), fed, standardized breakfast, read-out: t1/2, term, Mean (converted)",185 h
same,half-life,"50 mg, Treatment I: single 50 mg (SF2a), fed, standardized breakfast, read-out: t1/2, term, Median (converted)",159 h
same,Tmax,"50 mg, Treatment I: single 50 mg (SF2a), fed, standardized breakfast",6.5 h
same,AUC(0-t),"200 mg, 200 mg SF2b, fasted, linear mixed effects model (Table 5B), read-out: AUClast, Geometric Mean Treatment F",60500 ng·h/mL
same,AUC(0-inf),"200 mg, 200 mg SF2b, fasted, linear mixed effects model (Table 5B), read-out: AUC∞, Geometric Mean Treatment F",60500 ng·h/mL
same,Cmax,"200 mg, 200 mg SF2b, fasted, linear mixed effects model (Table 5B), read-out: Cmax, Geometric Mean Treatment F",559 ng/mL
same,AUC(0-t),"200 mg, 200 mg SF2b, fed, low-fat, high-calorie breakfast, read-out: AUClast, Geometric LS Means Treatment O",65200 ng·h/mL
same,AUC(0-inf),"200 mg, 200 mg SF2b, fed, low-fat, high-calorie breakfast, read-out: AUC∞, Geometric LS Means Treatment O",69300 ng·h/mL
same,Cmax,"200 mg, 200 mg SF2b, fed, low-fat, high-calorie breakfast, read-out: Cmax, Geometric LS Means Treatment O",700 ng/mL
same,AUC(0-t),"200 mg, 200 mg SF2b, fed, low-fat, low-calorie breakfast, read-out: AUClast, Geometric LS Means Treatment N",71900 ng·h/mL
same,AUC(0-inf),"200 mg, 200 mg SF2b, fed, low-fat, low-calorie breakfast, read-out: AUC∞, Geometric LS Means Treatment N",75800 ng·h/mL
same,Cmax,"200 mg, 200 mg SF2b, fed, low-fat, low-calorie breakfast, read-out: Cmax, Geometric LS Means Treatment N",697 ng/mL
same,AUC(0-t),"200 mg, 200 mg SF2b, fed, standardized breakfast (Tables 5E, 5G), read-out: AUClast, Geometric LS Means Treatment G",98200 ng·h/mL
